Results taken from patent US20260207623A1, “USE OF ESTETROL IN HEPATICALLY IMPAIRED PATIENTS” (ESTETRA SRL, priority 2022, published 2026).
“And” between values parts separate entries of the source, which are not always exact repeats. Equal entries are not always repeated. Where two headings read alike, the source gives them in different places.

Experiment: Phase 1 pharmacokinetic study of a single oral dose of 20 mg E4 monohydrate in female subjects with normal hepatic function and mild, moderate or severe hepatic impairment (plasma, LC-MS/MS, non-compartmental analysis)
Format: in vivo, human
Details: for AUC(0-t) / Cmax / half-life / Tmax / Vd/F / AUC(0-inf): female, human, plasma, po, 20 mg; for Tmax: read-out: Tmax, Median
Procedure: This was a Phase 1, multi-centre, open-label, PK, and safety study of a single oral dose of 20 mg E4 monohydrate in female subjects with normal hepatic function (Group 1), mild hepatic impairment (Group 2), moderate hepatic impairment (Group 3), and severe hepatic impairment (Group 4), as defined using the Child-Pugh classification at Screening.
The study consisted of an eligibility Screening period (within 28 days prior to study drug administration), an Assessment Period with in-house period and outpatient visits (including a single oral dose of 20 mg E4 on Day 1), and a follow up visit. All subjects were confined to the study site from Day-1 (the day before dosing) until Day 4 and returned to the site every day from Day 5 to Day 9. Alternatively, the subjects could stay for a prolonged in-house period in agreement with the Investigator. The follow-up visit occurred on Day 14 (+2 days).
All subjects arrived at the study site in the morning of Day-1 in a fasted state (no food for at least 8 h, water was allowed) to have the scheduled assessments performed in order to confirm eligibility as outlined in the inclusion and exclusion criteria (Section 2.3.1 and Section 2.3.2, respectively). In the morning of Day 1 following an overnight fast, the subjects received oral dosing of 20 mg E4 monohydrate and remained at the site. Study-related assessments were performed at time points indicated in the Schedule of Assessments in Table 2.
Serial blood sampling for PK assessments started on Day 1 and proceeded until Day 9 according to the Pharmacokinetic Sampling Schedule presented in Table 3.
Each enrolled subject was to receive a single oral dose of 20 mg of E4 (estetrol) as monohydrate as a film-coated tablet.
Study drug was administered to subjects in the morning after an overnight fast of at least 8 h.
Calculation of non-compartmental PK parameters were done using WinNonlin™ Professional, Version 6.3 or higher.
The primary PK parameters to be analyzed for E4 in plasma: • Cmax=maximum observed plasma concentration • AUCinf=area under the concentration-time curve (AUC) from time zero extrapolated to infinity
The analysis of E4 and the metabolites E4-3-glucuronide and E4-16-glucuronide in plasma samples were performed at the Bioanalytical Laboratory of the CRO using a validated liquid chromatography-mass spectrometry/mass spectrometry method.
Individual and mean plasma concentrations at each sampling time point for E4 are presented by listings and descriptive summary statistics including means, geometric means (GMs), medians, ranges, standard deviations (SD) and coefficients of variation (CV). Individual, mean and/or median concentrations per hepatic function group were plotted versus time on semilogarithmic scales.
PK parameters were calculated by non-compartmental analysis. PK parameters were analysed using descriptive statistics and are presented by hepatic function group.
Analysis of variance (ANOVA) were used to compare primary PK parameters of E4 (Cmax and AUCinf) between subjects with hepatic impairment and subjects with normal hepatic function in an exploratory approach, using the log-transformed value of each PK parameter as dependent variable, and the hepatic impairment group (normal, mild, moderate, and severe) as a fixed classification factor. Geometric least squares means were used to calculate the ratios of primary PK parameters for each hepatic impairment group to those in the control group, along with 90% confidence intervals (CIs).
Additionally, the impact of age and BMI on the effect of hepatic impairment were evaluated using an ANOVA model similar as the ANOVA model described above, but with the interaction between each factor and the hepatic impairment group included as an additional factor.
The relationship between log-transformed PK parameters (Cmax and AUCinf) and continuous parameters (albumin, total bilirubin, and prothrombin time) used for the Child-Pugh score was explored by a linear regression approach. […]

[1] = mild hepatic impairment, single oral dose 20 mg
[2] = moderate hepatic impairment, single oral dose 20 mg
[3] = severe hepatic impairment, single oral dose 20 mg

C[C@]12CC[C@@H]3c4ccc(O)cc4CC[C@H]3[C@@H]1[C@@H](O)[C@@H](O)[C@@H]2O [E4, 1,3,5 (10)-estratrien-3,15alpha, 16alpha, 17beta-tetrol]
AUC(0-t) (Moderate hepatic impairment, single oral dose 20 mg E4 monohydrate, read-out: AUClast, Mean): 0.122 µg·h/mL | AUC(0-t) (Moderate hepatic impairment, single oral dose 20 mg E4 monohydrate, read-out: AUClast, Median): 0.114 µg·h/mL | Cmax (Moderate hepatic impairment, single oral dose 20 mg E4 monohydrate, read-out: Cmax, GM): 0.0394 µg/mL | Cmax (Moderate hepatic impairment, single oral dose 20 mg E4 monohydrate, read-out: Cmax, Mean): ~0.052 µg/mL | Cmax (Moderate hepatic impairment, single oral dose 20 mg E4 monohydrate, read-out: Cmax, Median): 0.0411 µg/mL | half-life (Moderate hepatic impairment, single oral dose 20 mg E4 monohydrate, read-out: T1/2, GM (converted)): 14.8 h | half-life (Moderate hepatic impairment, single oral dose 20 mg E4 monohydrate, read-out: T1/2, Mean (converted)): 16.6 h | half-life (Moderate hepatic impairment, single oral dose 20 mg E4 monohydrate, read-out: T1/2, Median (converted)): 14.3 h | Tmax (Moderate hepatic impairment, single oral dose 20 mg E4 monohydrate): 0.5 h | Vd/F (Moderate hepatic impairment, single oral dose 20 mg E4 monohydrate, read-out: Vz/F, GM): 3960 L | Vd/F (Moderate hepatic impairment, single oral dose 20 mg E4 monohydrate, read-out: Vz/F, Mean): 4760 L | Vd/F (Moderate hepatic impairment, single oral dose 20 mg E4 monohydrate, read-out: Vz/F, Median): 4150 L | AUC(0-inf) (Normal (Reference), one-way ANOVA, single oral dose 20 mg, read-out: AUCinf, Geometric LS Mean): 0.104 µg·h/mL | Cmax (Normal (Reference), one-way ANOVA, single oral dose 20 mg, read-out: Cmax, Geometric LS Mean): 0.0208 µg/mL | AUC(0-t) (Normal hepatic function, single oral dose 20 mg E4 monohydrate, read-out: AUC0-24 h, GM): 0.0604 µg·h/mL | AUC(0-t) (Normal hepatic function, single oral dose 20 mg E4 monohydrate, read-out: AUC0-24 h, Mean): 0.0635 µg·h/mL | AUC(0-t) (Normal hepatic function, single oral dose 20 mg E4 monohydrate, read-out: AUC0-24 h, Median): 0.0638 µg·h/mL | AUC(0-inf) (Normal hepatic function, single oral dose 20 mg E4 monohydrate, read-out: AUCinf, GM): 0.104 µg·h/mL | AUC(0-inf) (Normal hepatic function, single oral dose 20 mg E4 monohydrate, read-out: AUCinf, Mean): 0.108 µg·h/mL | AUC(0-inf) (Normal hepatic function, single oral dose 20 mg E4 monohydrate, read-out: AUCinf, Median): 0.113 µg·h/mL | AUC(0-t) (Normal hepatic function, single oral dose 20 mg E4 monohydrate, read-out: AUClast, GM): 0.103 µg·h/mL | AUC(0-t) (Normal hepatic function, single oral dose 20 mg E4 monohydrate, read-out: AUClast, Mean): 0.107 µg·h/mL | AUC(0-t) (Normal hepatic function, single oral dose 20 mg E4 monohydrate, read-out: AUClast, Median): 0.111 µg·h/mL | Cmax (Normal hepatic function, single oral dose 20 mg E4 monohydrate, read-out: Cmax, GM): 0.0208 µg/mL | Cmax (Normal hepatic function, single oral dose 20 mg E4 monohydrate, read-out: Cmax, Mean): ~0.024 µg/mL | Cmax (Normal hepatic function, single oral dose 20 mg E4 monohydrate, read-out: Cmax, Median): 0.0248 µg/mL | half-life (Normal hepatic function, single oral dose 20 mg E4 monohydrate, read-out: T1/2, GM (converted)): 21.7 h | half-life (Normal hepatic function, single oral dose 20 mg E4 monohydrate, read-out: T1/2, Mean (converted)): 22.3 h | half-life (Normal hepatic function, single oral dose 20 mg E4 monohydrate, read-out: T1/2, Median (converted)): 22.7 h | Tmax (Normal hepatic function, single oral dose 20 mg E4 monohydrate): 0.475 h | Vd/F (Normal hepatic function, single oral dose 20 mg E4 monohydrate, read-out: Vz/F, GM): 6000 L | Vd/F (Normal hepatic function, single oral dose 20 mg E4 monohydrate, read-out: Vz/F, Mean): 6590 L | Vd/F (Normal hepatic function, single oral dose 20 mg E4 monohydrate, read-out: Vz/F, Median): 6430 L | AUC(0-inf) (Severe (Test), one-way ANOVA, single oral dose 20 mg, read-out: AUCinf, Geometric LS Mean): 0.198 µg·h/mL | Cmax (Severe (Test), one-way ANOVA, single oral dose 20 mg, read-out: Cmax, Geometric LS Mean): 0.111 µg/mL | AUC(0-t) (Severe hepatic impairment, single oral dose 20 mg E4 monohydrate, read-out: AUC0-24 h, GM): 0.179 µg·h/mL | AUC(0-t) (Severe hepatic impairment, single oral dose 20 mg E4 monohydrate, read-out: AUC0-24 h, Mean): 0.184 µg·h/mL | AUC(0-t) (Severe hepatic impairment, single oral dose 20 mg E4 monohydrate, read-out: AUC0-24 h, Median): 0.172 µg·h/mL | AUC(0-inf) (Severe hepatic impairment, single oral dose 20 mg E4 monohydrate, read-out: AUCinf, GM): 0.198 µg·h/mL | AUC(0-inf) (Severe hepatic impairment, single oral dose 20 mg E4 monohydrate, read-out: AUCinf, Mean): 0.205 µg·h/mL | AUC(0-inf) (Severe hepatic impairment, single oral dose 20 mg E4 monohydrate, read-out: AUCinf, Median): 0.18 µg·h/mL | AUC(0-t) (Severe hepatic impairment, single oral dose 20 mg E4 monohydrate, read-out: AUClast, GM): 0.196 µg·h/mL | AUC(0-t) (Severe hepatic impairment, single oral dose 20 mg E4 monohydrate, read-out: AUClast, Mean): 0.204 µg·h/mL | AUC(0-t) (Severe hepatic impairment, single oral dose 20 mg E4 monohydrate, read-out: AUClast, Median): 0.178 µg·h/mL | Cmax (Severe hepatic impairment, single oral dose 20 mg E4 monohydrate, read-out: Cmax, GM): 0.111 µg/mL | Cmax (Severe hepatic impairment, single oral dose 20 mg E4 monohydrate, read-out: Cmax, Mean): ~0.117 µg/mL | Cmax (Severe hepatic impairment, single oral dose 20 mg E4 monohydrate, read-out: Cmax, Median): 0.109 µg/mL | half-life (Severe hepatic impairment, single oral dose 20 mg E4 monohydrate, read-out: T1/2, GM (converted)): 8.22 h | half-life (Severe hepatic impairment, single oral dose 20 mg E4 monohydrate, read-out: T1/2, Mean (converted)): 8.97 h | half-life (Severe hepatic impairment, single oral dose 20 mg E4 monohydrate, read-out: T1/2, Median (converted)): 6.26 h | Tmax (Severe hepatic impairment, single oral dose 20 mg E4 monohydrate): 0.25 h | Vd/F (Severe hepatic impairment, single oral dose 20 mg E4 monohydrate, read-out: Vz/F, GM): 1200 L | Vd/F (Severe hepatic impairment, single oral dose 20 mg E4 monohydrate, read-out: Vz/F, Mean): 1260 L | Vd/F (Severe hepatic impairment, single oral dose 20 mg E4 monohydrate, read-out: Vz/F, Median): 1220 L | time to primary peak plasma concentration after administration (group of severe hepatic impairment): ≤ 15 min | time post dose until which concentrations remained above LLOQ in at least half of the subjects (mild hepatic impairment): 144 h | time post-dose of last measurable concentration (Clast) (mild hepatic impairment, 192 h = last measured timepoint): 192 h | GM AUCinf compared to the control group (normal hepatic function) [1]: ~ 1.1 fold and 1.120 fold | GM Cmax compared to the control group (normal hepatic function) [1]: ~ 1.7 fold and 1.661 fold | time post dose until which concentrations remained above LLOQ in at least half of the subjects (moderate hepatic impairment): 96 h | time post-dose of last measurable concentration (Clast) (moderate hepatic impairment): 144 h | GM AUCinf compared to the control group (normal hepatic function) [2]: ~ 1.0 fold and 1.032 fold | GM Cmax compared to the control group (normal hepatic function) [2]: ~ 1.9 fold and 1.896 fold | time post dose until which concentrations remained above LLOQ in at least half of the subjects (normal hepatic function): 144 h | time post-dose of last measurable concentration (Clast) (normal hepatic function, 192 h = last measured timepoint): 192 h | time to primary peak plasma concentration after administration (on average, single oral dose 20 mg): ≤ 30 min | time post dose until which concentrations remained above LLOQ in at least half of the subjects (severe hepatic impairment): 48 h | time post-dose of last measurable concentration (Clast) (severe hepatic impairment): 168 h | GM AUCinf compared to the control group (normal hepatic function) [3]: ~ 1.9 fold and 1.894 fold | GM Cmax compared to the control group (normal hepatic function) [3]: ~ 5.4 fold and 5.359 fold | time after which log-linear terminal elimination phase is entered (single oral dose 20 mg): ~ 12 h
